From patent publication US9777003B2, “Tricyclic heterocycles as bet protein inhibitors” (Incyte Corporation, priority 2013, dated 2017)
Structures can show the parent of a compound that is named as a salt.

How the values were obtained:
[1] = target: BRD4-BD1 (Homo sapiens (Human), UniProt O60885); test: BRD4 AlphaScreen assay, BRD4-BD1; format: binding; conditions: biotin-labeled tetra-acetylated histone H4 peptide, 75 min, room temperature, read-out: BRD4 BD-1 enzyme IC50
Protocol: (§1) BRD4-BD1 and BRD4-BD2 assays were conducted in white 384-well polystyrene plate in a final volume of 20 μL for BD1 and 40 μL for BD2. Inhibitors were first serially diluted in DMSO and added to the plate wells before the addition of other reaction components. The final concentration of DMSO in the assay was 1.25% (BD1) and 0.83% (BD2). The assays were carried out at room temperature for 75 min. in the assay buffer (50 mM HEPES, pH 7.4, 100 mM NaCl, 0.05% CHAPS, 0.01% BSA), containing 50 nM Biotin-labeled tetra-acetylated histone H4 peptide (H4Ac4), 3.8 nM (BRD4-BD1, BPS Bioscience #31040) or 20 nM (BRD4-BD2, BPS Bioscience #31041). The reaction followed by the addition of 20 μL of assay buffer supplemented with Streptavidin donor beads (PerkinElmer 6760002) and GSH Acceptor beads (PerkinElmer-AL109C) at 4 μg/mL under reduced light. After plate sealing, the plate was incubated in the dark at room temperature for 75 min. before reading on a PHERAstar FS plate reader (BMG Labtech). IC50 determination was performed by fitting the curve of percent control activity versus the log of the inhibitor concentration using the GraphPad Prism 5.0 software.

[2] = target: BRD4-BD2 (Homo sapiens (Human), UniProt O60885); test: BRD4 AlphaScreen assay, BRD4-BD2; format: binding; conditions: biotin-labeled tetra-acetylated histone H4 peptide, 75 min, room temperature, read-out: BRD4 BD-2 enzyme IC50
Protocol: as §1

SMILES | IC50 [1] [nM] | IC50 [2] [nM]
Cc1cc2c(cc(NC3CCC(C#N)CC3)c3nnc(C)n32)n1Cc1ccccc1 (single isomer, unassigned) [Example 215 a, 4-[(6-benzyl-1,7-dimethyl-6H-pyrrolo[2,3-e][1,2,4]triazolo[4,3-a]pyridin-4-yl)amino]cyclohexanecarbonitrile Trifluoroacetate Salt] | 100 to 1000 | ≤ 100
Cc1cc2c(cc(N[C@H]3CC[C@@H](C#N)CC3)c3nnc(C)n32)n1Cc1ccccc1 (single isomer, unassigned) [Example 215 b, 4-[(6-benzyl-1,7-dimethyl-6H-pyrrolo[2,3-e][1,2,4]triazolo[4,3-a]pyridin-4-yl)amino]cyclohexanecarbonitrile Trifluoroacetate Salt] | ≤ 100 | ≤ 100
Cc1nnc2ccc3c(ccn3Cc3ccccc3)n12 [Example 1, 6-benzyl-1-methyl-6H-pyrrolo[2,3-e][1,2,4]triazolo[4,3-a]pyridine] | 100 to 1000 | ≤ 100
Cc1nnc2ccc3c(ccn3S(=O)(=O)c3ccccc3)n12 [Example 3, 1-methyl-6-(phenylsulfonyl)-6H-pyrrolo[2,3-e][1,2,4]triazolo[4,3-a]pyridine] | 100 to 1000 | 100 to 1000
Cc1cc2c(ccc3nnc(C)n32)n1CCc1ccccc1 [Example 6, 1,7-dimethyl-6-(2-phenylethyl)-6H-pyrrolo[2,3-e][1,2,4]triazolo[4,3-a]pyridine] | 100 to 1000 | 100 to 1000
Cc1cc2c(ccc3nnc(C)n32)n1Cc1ccccn1 [Example 7, 1,7-dimethyl-6-(pyridin-2-ylmethyl)-6H-pyrrolo[2,3-e][1,2,4]triazolo[4,3-a]pyridine] | 100 to 1000 | 100 to 1000
Cc1cc2c(ccc3nnc(C)n32)n1Cc1ccccc1Cl [Example 8, 6-(2-chlorobenzyl)-1,7-dimethyl-6H-pyrrolo[2,3-e][1,2,4]triazolo[4,3-a]pyridine] | 100 to 1000 | ≤ 100
Cc1cc2c(ccc3nnc(C)n32)n1Cc1cccnc1 [Example 11, 1,7-dimethyl-6-(pyridin-3-ylmethyl)-6H-pyrrolo[2,3-e][1,2,4]triazolo[4,3-a]pyridine] | 100 to 1000 | 100 to 1000
Cc1cc2c(ccc3nnc(C)n32)n1Cc1ccncc1 [Example 12, 1,7-dimethyl-6-(pyridin-4-ylmethyl)-6H-pyrrolo[2,3-e][1,2,4]triazolo[4,3-a]pyridine] | 100 to 1000 | 100 to 1000
Cc1cc2c(ccc3nnc(C)n32)n1CC1CCCC1 [Example 13, 6-(cyclopentylmethyl)-1,7-dimethyl-6H-pyrrolo[2,3-e][1,2,4]triazolo[4,3-a]pyridine] | 100 to 1000 | ≤ 100
Cc1cc2c(ccc3nnc(C)n32)n1Cc1ccccc1F [Example 14, 6-(2-fluorobenzyl)-1,7-dimethyl-6H-pyrrolo[2,3-e][1,2,4]triazolo[4,3-a]pyridine] | ≤ 100 | ≤ 100
Cc1cc2c(ccc3nnc(C)n32)n1Cc1ccc(F)cc1 [Example 16, 6-(4-fluorobenzyl)-1,7-dimethyl-6H-pyrrolo[2,3-e][1,2,4]triazolo[4,3-a]pyridine] | ≤ 100 | ≤ 100
Cc1ccccc1Cn1c(C)cc2c1ccc1nnc(C)n12 [Example 17, 1,7-dimethyl-6-(2-methylbenzyl)-6H-pyrrolo[2,3-e][1,2,4]triazolo[4,3-a]pyridine] | ≤ 100 | ≤ 100
Cc1ccc(Cn2c(C)cc3c2ccc2nnc(C)n23)cc1 [Example 19, 1,7-dimethyl-6-(4-methylbenzyl)-6H-pyrrolo[2,3-e][1,2,4]triazolo[4,3-a]pyridine] | ≤ 100 | ≤ 100
Cc1cc2c(ccc3nnc(C)n32)n1Cc1ccc2ccccc2n1 [Example 21, 1,7-dimethyl-6-(quinolin-2-ylmethyl)-6H-pyrrolo[2,3-e][1,2,4]triazolo[4,3-a]pyridine] | 100 to 1000 | ≤ 100
CC(=O)Nc1cccc(Cn2c(C)cc3c2ccc2nnc(C)n23)c1 [Example 25, N-{3-[(1,7-dimethyl-6H-pyrrolo[2,3-e][1,2,4]triazolo[4,3-a]pyridin-6-yl)methyl]phenyl}acetamide Trifluoroacetate Salt] | 100 to 1000 | ≤ 100
Cc1cc2c(ccc3nnc(C)n32)n1Cc1cccc(CN2CC(O)C2)c1 [Example 27, 1-(3-((1,7-dimethyl-6H-pyrrolo[2,3-e][1,2,4]triazolo[4,3-a]pyridin-6-yl)methyl)benzyl)azetidin-3-ol bis-trifluoroacetate Salt] | ≤ 100 | ≤ 100
Cc1cc2c(ccc3nnc(C)n32)n1Cc1cccc(CN2CCC2)c1 [Example 28, 6-[3-(azetidin-1-ylmethyl)benzyl]-1,7-dimethyl-6H-pyrrolo[2,3-e][1,2,4]triazolo[4,3-a]pyridine] | ≤ 100 | ≤ 100
Cc1cc2c(ccc3nnc(C)n32)n1Cc1cccc(C(=O)NO)c1 [Example 31, 3-[(1,7-dimethyl-6H-pyrrolo[2,3-e][1,2,4]triazolo[4,3-a]pyridin-6-yl)methyl]-N-hydroxybenzamide Trifluoroacetate Salt] | 100 to 1000 | ≤ 100
CCNC(=O)c1cccc(Cn2c(C)cc3c2ccc2nnc(C)n23)c1 [Example 33, 3-[(1,7-dimethyl-6H-pyrrolo[2,3-e][1,2,4]triazolo[4,3-a]pyridin-6-yl)methyl]-N-ethylbenzamide Trifluoroacetate Salt] | 100 to 1000 | ≤ 100
COc1ccc(Cn2c(C)cc3c2ccc2nnc(C)n23)cc1 [Example 34, 6-(4-methoxybenzyl)-1,7-dimethyl-6H-pyrrolo[2,3-e][1,2,4]triazolo[4,3-a]pyridine] | ≤ 100 | ≤ 100
Cc1cc2c(ccc3nnc(C)n32)n1Cc1ccc(O)cc1 [Example 35, 4-[(1,7-dimethyl-6H-pyrrolo[2,3-e][1,2,4]triazolo[4,3-a]pyridin-6-yl)methyl]phenol] | ≤ 100 | ≤ 100
Cc1cc2c(ccc3nnc(C)n32)n1Cc1cccc(CNCCO)c1 [Example 36, 2-({3-[(1,7-dimethyl-6H-pyrrolo[2,3-e][1,2,4]triazolo[4,3-a]pyridin-6-yl)methyl]benzyl}amino)ethanol] | ≤ 100 | ≤ 100

Continued, values first:

IC50 [1] [nM] | IC50 [2] [nM] | SMILES
≤ 100 | ≤ 100 | Cc1cc2c(ccc3nnc(C)n32)n1Cc1ccccc1 [Example 2, 6-benzyl-1,7-dimethyl-6H-pyrrolo[2,3-e][1,2,4]triazolo[4,3-a]pyridine]
≤ 100 | ≤ 100 | Cc1cc2c(ccc3nnc(C)n32)n1Cc1cccc(Cl)c1 [Example 9, 6-(3-chlorobenzyl)-1,7-dimethyl-6H-pyrrolo[2,3-e][1,2,4]triazolo[4,3-a]pyridine]
≤ 100 | ≤ 100 | Cc1cc2c(ccc3nnc(C)n32)n1Cc1ccc(Cl)cc1 [Example 10, 6-(4-chlorobenzyl)-1,7-dimethyl-6H-pyrrolo[2,3-e][1,2,4]triazolo[4,3-a]pyridine]
≤ 100 | ≤ 100 | Cc1cc2c(ccc3nnc(C)n32)n1Cc1cccc(F)c1 [Example 15, 6-(3-fluorobenzyl)-1,7-dimethyl-6H-pyrrolo[2,3-e][1,2,4]triazolo[4,3-a]pyridine]
≤ 100 | ≤ 100 | Cc1cccc(Cn2c(C)cc3c2ccc2nnc(C)n23)c1 [Example 18, 1,7-dimethyl-6-(3-methylbenzyl)-6H-pyrrolo[2,3-e][1,2,4]triazolo[4,3-a]pyridine]
100 to 1000 | ≤ 100 | Cc1cc2c(ccc3nnc(C)n32)n1Cc1cccc(C#N)c1 [Example 20, 3-[(1,7-dimethyl-6H-pyrrolo[2,3-e][1,2,4]triazolo[4,3-a]pyridine-6-yl)methyl]benzonitrile]
100 to 1000 | ≤ 100 | COc1cccc(Cn2c(C)cc3c2ccc2nnc(C)n23)c1 [Example 22, 6-(3-methoxybenzyl)-1,7-dimethyl-6H-pyrrolo[2,3-e][1,2,4]triazolo[4,3-a]pyridine]
≤ 100 | ≤ 100 | Cc1cc2c(ccc3nnc(C)n32)n1Cc1cccc(O)c1 [Example 23, 3-[(1,7-dimethyl-6H-pyrrolo[2,3-e][1,2,4]triazolo[4,3-a]pyridin-6-yl)methyl]phenol]
≤ 100 | ≤ 100 | Cc1cc2c(ccc3nnc(C)n32)n1Cc1cccc(CO)c1 [Example 26, {3-[(1,7-dimethyl-6H-pyrrolo[2,3-e][1,2,4]triazolo[4,3-a]pyridin-6-yl)methyl]phenyl}methanol Trifluoroacetate Salt]
100 to 1000 | ≤ 100 | Cc1cc2c(ccc3nnc(C)n32)n1Cc1cccc(C(N)=O)c1 [Example 30, 3-((1,7-dimethyl-6H-pyrrolo[2,3-e][1,2,4]triazolo[4,3-a]pyridin-6-yl)methyl)benzamide Trifluoroacetate Salt]
100 to 1000 | ≤ 100 | CNC(=O)c1cccc(Cn2c(C)cc3c2ccc2nnc(C)n23)c1 [Example 32, 3-[(1,7-dimethyl-6H-pyrrolo[2,3-e][1,2,4]triazolo[4,3-a]pyridin-6-yl)methyl]-N-methylbenzamide Trifluoroacetate Salt]
